Data reported in patent US9833520B2, “Labeled, non-peptidic, multivalent integrin antagonist compounds; methods for synthesis and uses thereof” (The Methodist Hospital Research Institute, priority 2011, dated 2017).
“Also recorded” adds a separate entry of the source.

Test system: U-87 MG (ATCC HTB-14) glioblastoma cells over-expressing integrin αvβ3
Assay: Fluorescence microscopy probe binding assay in U-87 cells
Type: cell-based, human
Details: blocking dose 20 μmol/L
Description: Fluorescence Microscopy Studies. […] For fluorescence microscopy studies, 1×10^4 U-87 cells were cultured on 35 mm MatTek glass bottom culture dishes. After 24 hr, cells were washed with PBS and then incubated with bivalent-IA-Cy5.5 (200 nM) at 37° C. for 45 min. Integrin specificity of the probe binding was verified by incubating U-87 cells with and without a blocking dose of the non-fluorescent bivalent IA (20 μmol/L). After the incubation period, the cells were washed three times with ice-cold PBS. The fluorescence signal of the cells was recorded using FluoView® 1000 Laser Scanning Confocal Microscope (Olympus, Center Valley, Pa., USA) under a 40× oil-immersion objective, with laser excitation at 675 nm (Cy5.5). A differential interference contrast image was also recorded so that the origin of fluorescent signals could be confirmed.

**Q.** Which “blocking of bivalent-IA-Cy5.5 binding/endocytosis in U-87 cells” value does the source give for `NC(CCCCCC(=O)NCCS(=O)(=O)N[C@@H](CNC(=O)c1ccc(OCCNC2=NCCCN2)cc1)C(=O)O)C(=O)NCCS(=O)(=O)N[C@@H](CNC(=O)c1ccc(OCCNC2=NCCCN2)cc1)C(=O)O` (stereo partly shown) [bivalent IA] here?
**A.** complete blockage of endocytosis of the imaging probes; also recorded: effectively blocked
